Measurements reported in PMC10835127, “Viruses traverse the human proteome through peptide interfaces that can be biomimetically leveraged for drug discovery” (Proceedings of the National Academy of Sciences of the …, 2024).
Where two headings read alike, the source gives them in different places.

Experiments:
[1] = system: influenza A H1N1 virus; conditions: 48 hr post-treatment, A549
[2] = system: F. novicida (strain U112); assay type: cell-based
[3] = system: EBV; conditions: normalized mean of EBV replication readout
[4] = system: HCV replicon; assay type: cell-based; conditions: normalized mean of HCV replicon readout
[5] = system: HIV1 strain NL4-3; assay type: cell-based; conditions: normalized mean of HIV1 replication readout

Substance	Neuraminidase activity normalized to vehicle ([1]; 200 µM peptide)	Neuraminidase activity normalized to vehicle ([1]; 0,823 µM peptide)	Neuraminidase activity normalized to vehicle ([1]; 22,2 µM peptide)	Neuraminidase activity normalized to vehicle ([1]; 2,4691 µM peptide)	Neuraminidase activity normalized to vehicle ([1]; 7,4074 µM peptide)	Neuraminidase activity normalized to vehicle ([1]; 66,6667 µM peptide)	Francisella novicida Norm AUC [2]	EBV Norm MEAN [3]	HCV Norm MEAN [4]	HIV1 Norm MEAN [5]	EBV Norm MEAN ([3]; peptide screen)	HCV Norm MEAN ([4]; peptide screen)	HIV1 Norm MEAN ([5]; peptide screen)
CPEP153: peptide of the viral peptide library; sequence page not shown (GRKKRRQRRR)	0,9878	1,0171	1,0832	1,0648	1,0014	1,1029	0.6851	2.382	0.3202	0.7984			
RRRETQV [CPEP148]	0,7433	0,8071	0,8272	0,7477	0,8788	0,7757	0.7414	1.54	0.1353	0.7674			
EPLDLPPIIQ [CPEP45]	0,7336	0,9966	0,8381	0,9443	0,9188	0,7574	1.0611	0.6832	1.078	0.3392			
LERVIFPSVKIATLV [CPEP53]	0,9303	0,9211	1,0363	1,008	1,0347	1,0977	0.5248				1.031	0.3466	0.6568
PDSDPQIPPPYVEPTA [CPEP138]	1,0087	1,063	1,1918	0,9934	1,0804	1,0379	0.9657				0.9708	1.015	0.606
IQIGNHNAM [CPEP67]	0,0404	0,9632	0,5849	0,8279	0,768	0,4017	0.7313	1.399	0.7713	4.672			
PLDLS [CPEP54]	1,1329	1,0199	0,844	1,1627	0,6425	1,0456	0.4272	1.129	0.1712	1.112			
EALKKALRRHRFLWQRR [CPEP73]	0,1338	1,11	1,1241	0,9956	1,1329	0,4622	1.711				2.469	0.02817	0.2962
KKTKSLP [CPEP75]	0,6614	0,8942	0,8062	0,8135	0,8547	0,7577	1.06	0.414	0.2042	0.7985			
CPEP61: peptide of the viral peptide library; sequence page not shown (KRRKSGAKRR)	0,867	1,0166	1,0577	1,0813	0,9769	1,1022	0.6493	3.372	0.1619	1.461			
